Laboratory results published in patent US10385065B2, “Antibacterial compounds” (priority 2014, dated 2019).
Values after ≈ are worked out from the molar mass of the structure shown. Read-outs that look alike come from different tables or passages of the source.

What was measured:
Format in all cases: cell-based
S. aureus NRS100 MRSA = experiment: MIC, S. aureus NRS100; conditions: Staphylococcus aureus; Table 2
S. aureus NRS70 MRSA = experiment: MIC, S. aureus NRS70; conditions: Staphylococcus aureus; Table 2
[1] = tested on: S. aureus VRS1 MRSA VAN resistant; experiment: MIC, S. aureus VRS1; conditions: Staphylococcus aureus, Table 2
[2] = tested on: Streptococcus pneumoniae ATCC BAA-255; experiment: MIC, S. pneumoniae ATCC BAA-255; conditions: ATCCBAA255, Table 2
[3] = tested on: S. aureus SACPX1-SP25 MSSA - FQ resistant; experiment: microbe, parasite or virus in culture; conditions: Staphylococcus aureus, ATCC 29213 / MSSA, read-out: MIC S. aureus SACPX1-SP25 MSSA - FQ resistant (isogenic mutant of ATCC 29213)
[4] = tested on: Staphylococcus aureus ATCC 29213; experiment: MIC, broth microdilution, S. aureus ATCC 29213
[5] = tested on: Haemophilus influenzae ATCC 49247; experiment: MIC, H. influenzae ATCC 49247; conditions: ATCC49247, Table 4
[6] = tested on: S. epidermidis NRS101 MRSE; experiment: MIC, S. epidermidis NRS101; conditions: Staphylococcus epidermidis; Table 2; read-out: MIC S. epidermidis NRS101 MRSE AMG, ERY resistant
[7] = tested on: Enterococcus faecium ATCC 19434; experiment: MIC, E. faecium ATCC 19434; conditions: ATCC19434, Table 2
[8] = tested on: Moraxella catarrhalis ATCC 25240; experiment: MIC, M. catarrhalis ATCC 25240; conditions: ATCC25240, Table 4
[9] = tested on: S. aureus NRS107 MUP resistant; experiment: MIC, S. aureus NRS107; conditions: Staphylococcus aureus, Table 2
[10] = tested on: S. aureus NRS127 MRSA LZD resistant; experiment: MIC, S. aureus NRS127; conditions: Staphylococcus aureus; Table 2
[11] = tested on: Legionella pneumophila ATCC 33152; experiment: microbe, parasite or virus in culture; conditions: ATCC33152, 48 h, read-out: MIC Legionella pneumophila ATCC 33152
[12] = tested on: Neisseria meningitidis ATCC 13090; experiment: MIC, N. meningitidis ATCC 13090; conditions: ATCC13090, Table 4, 24 h incubation
[13] = tested on: S. aureus (MRSA) ATCC 43300; experiment: MIC, S. aureus ATCC 43300; conditions: Staphylococcus aureus; Table 2; read-out: MIC S. aureus (MRSA) ATCC 43300 Heterogeneous MRSA strain
[14] = tested on: Escherichia coli ATCC 25922; experiment: MIC, broth microdilution, E. coli ATCC 25922; conditions: ATCC25922, Table 1, wild type strain
[15] = tested on: Neisseria gonorrhoeae ATCC 49226; experiment: MIC, N. gonorrhoeae ATCC 49226; conditions: ATCC49226, Table 4, 24 h incubation
S. aureus NRS1 MRSA = experiment: MIC, S. aureus NRS1; conditions: Staphylococcus aureus; Table 2; read-out: MIC S. aureus NRS1 MRSA AMG & TET resistant
[16] = tested on: human hepatic cell line (HepG2 ATCC HB-8065); experiment: Human cell viability assay (CellTiter-Glo), HepG2; conditions: read-out: IC50 values against HepG2
Outline: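 HepG2 seeded at 20,000 cells/well, then after 24 h given two-fold serial dilutions (1-128 μg/mL, 1% DMSO) in DMEM with 0.001% FBS and 0.3% albumin. After 24 h at 37 °C, ATP luminescence (CellTiter-Glo) read; IC50 is the concentration halving viability.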

[17] = tested on: S. aureus NRS482 MRSA FQ resistant; experiment: MIC, S. aureus NRS482; conditions: Staphylococcus aureus; Table 2
[18] = tested on: Mycobacterium smegmatis ATCC 19420; experiment: MIC, M. smegmatis ATCC 19420; conditions: Mycolicibacterium smegmatis, ATCC19420; Table 4, 72 h incubation
[19] = ATCC29213, Table 1, wild type strain, read-out: MIC S. aureus ATCC 29213
[20] = ATCC 29213 / MSSA, Table 2, read-out: MIC S. aureus (MSSA) ATCC 29213 CLSI control strain
[21] = HepG2, 24 h incubation, tested over 1-128 μg/mL

| Compound | MIC (S. aureus NRS100 MRSA) [mg/L] | MIC (S. aureus NRS70 MRSA) [mg/L] | MIC [1] [mg/L] | MIC [3] [mg/L] | MIC [4, 19] [mg/L] | MIC [4, 20] [mg/L] | MIC [5] [mg/L] | MIC [6] [mg/L] | MIC [7] [mg/L] | MIC [8] [mg/L] | MIC [9] [mg/L] | MIC [10] [mg/L] | MIC [11] [mg/L] | MIC [12] [mg/L] | MIC [13] [mg/L] | MIC [14] [mg/L] | MIC [15] [mg/L] | MIC (S. aureus NRS1 MRSA) [mg/L] | IC50 [16, 21] [mg/L] | MIC [17] [mg/L] | other results |
| --- | --- | --- | --- | --- | --- | --- | --- | --- | --- | --- | --- | --- | --- | --- | --- | --- | --- | --- | --- | --- | --- |
| Cc1nc2c(=O)n(C3CC3)c3c(C)c(-c4ccc(CN)c(F)c4)ccc3c2o1 [Compound 36, 7-[4-(aminomethyl)-3-fluoro-phenyl]-5-cyclopropyl-2,6-dimethyl-oxazolo[4,5-c]quinolin-4-one] | 1 to 10 (≈ 2.65 to 26.5 µM) | < 1 | 10 to 100 (≈ 26.5 to 265 µM) | 1 to 10 (≈ 2.65 to 26.5 µM) | < 1 | < 1 | 1 to 10 (≈ 2.65 to 26.5 µM) | 10 to 100 (≈ 26.5 to 265 µM) | 10 to 100 (≈ 26.5 to 265 µM) | 1 to 10 (≈ 2.65 to 26.5 µM) | 1 to 10 (≈ 2.65 to 26.5 µM) | 1 to 10 (≈ 2.65 to 26.5 µM) | < 1 | < 1 | < 1 | 1 to 10 (≈ 2.65 to 26.5 µM) | 10 to 100 (≈ 26.5 to 265 µM) | > 100 | > 100 | 1 to 10 (≈ 2.65 to 26.5 µM) | MIC [2]: 1 to 10 mg/L (≈ 2.65 to 26.5 µM) |
| Cc1c(-c2ccc3[nH]ncc3c2)ccc2c3ocnc3c(=O)n(C3CC3)c12 [Compound 39, 5-cyclopropyl-7-(1H-indazol-5-yl)-6-methyl-oxazolo[4,5-c]quinolin-4-one] | < 1 | < 1 | < 1 | < 1 | < 1 | < 1 | < 1 | < 1 | 10 to 100 (≈ 28.1 to 281 µM) |  | < 1 | < 1 |  | < 1 | < 1 | 1 to 10 (≈ 2.81 to 28.1 µM) | < 1 | < 1 | 10 to 100 (≈ 28.1 to 281 µM) | < 1 | MIC [2]: < 1 mg/L; MIC [18]: 1 to 10 mg/L (≈ 2.81 to 28.1 µM) |
| Cc1nc2c(=O)n(C3CC3)c3cc(N4CCC(CN)C4)c(F)cc3c2o1 (stereo not shown) [Compound 57, 7-[3-(aminomethyl)pyrrolidin-1-yl]-5-cyclopropyl-8-fluoro-2-methyl-oxazolo[4,5-c]quinolin-4-one] |  |  |  | 1 to 10 (≈ 2.81 to 28.1 µM) | < 1 | < 1 | 1 to 10 (≈ 2.81 to 28.1 µM) |  | 10 to 100 (≈ 28.1 to 281 µM) |  |  |  |  | 1 to 10 (≈ 2.81 to 28.1 µM) |  | 1 to 10 (≈ 2.81 to 28.1 µM) |  | 1 to 10 (≈ 2.81 to 28.1 µM) | 10 to 100 (≈ 28.1 to 281 µM) | 1 to 10 (≈ 2.81 to 28.1 µM) |  |
| Cc1nc2c(=O)n3c4c(c(N5CCC(CN)C5)c(F)cc4c2o1)OC[C@@H]3C (stereo partly drawn) [Compound 88, (2S)-6-[3-(aminomethyl)pyrrolidin-1-yl]-7-fluoro-2,12-dimethyl-4,11-dioxa-1,13-diazatetracyclo[7.6.1.0^5,^16.0^10,^14]hexadeca-5(16),6,8,10(14),12-pentaen-15-one] |  |  | 1 to 10 (≈ 2.69 to 26.9 µM) | 1 to 10 (≈ 2.69 to 26.9 µM) | < 1 | < 1 | 1 to 10 (≈ 2.69 to 26.9 µM) |  | 10 to 100 (≈ 26.9 to 269 µM) | 1 to 10 (≈ 2.69 to 26.9 µM) |  | 1 to 10 (≈ 2.69 to 26.9 µM) | 1 to 10 (≈ 2.69 to 26.9 µM) | 1 to 10 (≈ 2.69 to 26.9 µM) | 1 to 10 (≈ 2.69 to 26.9 µM) | 1 to 10 (≈ 2.69 to 26.9 µM) | 1 to 10 (≈ 2.69 to 26.9 µM) | 1 to 10 (≈ 2.69 to 26.9 µM) | 10 to 100 (≈ 26.9 to 269 µM) | 1 to 10 (≈ 2.69 to 26.9 µM) |  |
| Cc1nc2c(=O)n3c4c(c(N5CC[C@@H](CN)C5)c(F)cc4c2o1)OC[C@@H]3C [Compound 90, (2S)-6-[(3S)-3-(aminomethyl)pyrrolidin-1-yl]-7-fluoro-2,12-dimethyl-4,11-dioxa-1,13-diazatetracyclo[7.6.1.0^5,^16.0^10,^14]hexadeca-5(16),6,8,10(14),12-pentaen-15-one] |  |  | 10 to 100 (≈ 26.9 to 269 µM) | 1 to 10 (≈ 2.69 to 26.9 µM) | < 1 | < 1 | 1 to 10 (≈ 2.69 to 26.9 µM) |  |  | 1 to 10 (≈ 2.69 to 26.9 µM) |  | 1 to 10 (≈ 2.69 to 26.9 µM) | 1 to 10 (≈ 2.69 to 26.9 µM) |  | < 1 | 1 to 10 (≈ 2.69 to 26.9 µM) |  | 1 to 10 (≈ 2.69 to 26.9 µM) | 10 to 100 (≈ 26.9 to 269 µM) | 1 to 10 (≈ 2.69 to 26.9 µM) |  |
| C[C@H]1COc2c(-c3cc(F)c(N)cc3F)ccc3c4ocnc4c(=O)n1c23 [Compound 93, (2S)-6-(4-amino-2,5-difluorophenyl)-2-methyl-4,11-dioxa-1,13-diazatetracyclo[7.6.1.0^5,^16.0^10,^14]hexadeca-5(16),6,8,10(14),12-pentaen-15-one] |  |  | 1 to 10 (≈ 2.71 to 27.1 µM) | 1 to 10 (≈ 2.71 to 27.1 µM) | 1 to 10 (≈ 2.71 to 27.1 µM) | 1 to 10 (≈ 2.71 to 27.1 µM) | < 1 |  | 10 to 100 (≈ 27.1 to 271 µM) | 1 to 10 (≈ 2.71 to 27.1 µM) |  |  | < 1 |  | < 1 | 1 to 10 (≈ 2.71 to 27.1 µM) | < 1 |  | > 100 | 1 to 10 (≈ 2.71 to 27.1 µM) |  |
| Cc1c(-c2cc(F)c(N)cc2F)ccc2c3oc(CN)nc3c(=O)n(C3CC3)c12 [Compound 100, 7-(4-amino-2,5-difluoro-phenyl)-2-(aminomethyl)-5-cyclopropyl-6-methyl-oxazolo[4,5-c]quinolin-4-one] |  |  | 1 to 10 (≈ 2.52 to 25.2 µM) | < 1 | < 1 | < 1 | < 1 | < 1 | 1 to 10 (≈ 2.52 to 25.2 µM) | < 1 |  | 1 to 10 (≈ 2.52 to 25.2 µM) | < 1 | < 1 | < 1 | < 1 | < 1 | < 1 | > 100 | < 1 |  |
| C[C@H]1COc2c(N3CCN(C)CC3)c(F)cc3c(=O)c(C(=O)O)cn1c23 [Levofloxacin, reference compound] | < 1 | < 1 | 10 to 100 (≈ 27.7 to 277 µM) | 1 to 10 (≈ 2.77 to 27.7 µM) |  | < 1 | < 1 | < 1 | 1 to 10 (≈ 2.77 to 27.7 µM) | < 1 | < 1 | > 100 | < 1 | < 1 | < 1 |  | < 1 | 10 to 100 (≈ 27.7 to 277 µM) | > 100 | 1 to 10 (≈ 2.77 to 27.7 µM) | MIC [2]: < 1 mg/L |
| Cc1onc(-c2ccccc2)c1C(=O)N[C@@H]1C(=O)N2[C@@H]1SC(C)(C)[C@@H]2C(=O)O [Oxacillin, reference compound] | > 100 | 10 to 100 (≈ 24.9 to 249 µM) | < 1 | 1 to 10 (≈ 2.49 to 24.9 µM) |  | < 1 | > 100 | 1 to 10 (≈ 2.49 to 24.9 µM) | 10 to 100 (≈ 24.9 to 249 µM) |  | < 1 | < 1 |  |  | < 1 |  |  | > 100 | 10 to 100 (≈ 24.9 to 249 µM) |  |  |
| CN[C@H](CC(C)C)C(=O)N[C@H]1C(=O)N[C@@H](CC(N)=O)C(=O)N[C@H]2C(=O)N[C@H]3C(=O)N[C@H](C(=O)N[C@H](C(=O)O)c4cc(O)cc(O)c4-c4cc3ccc4O)[C@H](O)c3ccc(c(Cl)c3)Oc3cc2cc(c3O[C@@H]2O[C@H](CO)[C@@H](O)[C@H](O)[C@H]2O[C@H]2C[C@](C)(N)[C@H](O)[C@H](C)O2)Oc2ccc(cc2Cl)[C@H]1O [Vancomycin, reference compound] | 1 to 10 (≈ 0.69 to 6.9 µM) | < 1 | 1 to 10 (≈ 0.69 to 6.9 µM) |  |  | < 1 | 10 to 100 (≈ 6.9 to 69 µM) | 1 to 10 (≈ 0.69 to 6.9 µM) | < 1 |  | 1 to 10 (≈ 0.69 to 6.9 µM) | 1 to 10 (≈ 0.69 to 6.9 µM) |  |  | 1 to 10 (≈ 0.69 to 6.9 µM) |  |  | 1 to 10 (≈ 0.69 to 6.9 µM) |  | 1 to 10 (≈ 0.69 to 6.9 µM) | MIC [2]: < 1 mg/L; MIC ([3]; Table 2): < 1 mg/L; IC50 ([16]; HepG2, 24 h): 10 to 100 mg/L (≈ 6.9 to 69 µM) |
